Earlier results, collected in patent US20240423930A1, “PHARMACEUTICAL COMPOSITION AND METHOD FOR TREATING CARDIOVASCULAR DISEASES” (priority 2020, published 2024).

Test system: furin
Details: ectopic expression of the inhibitor; in vitro digestion assay

## alpha (1)-antitrypsin Portland [alpha(1)-AT-PDX]
  blocked TGF-beta1 processing mediated by endogenous enzymes: 80%
